According to patent US7501429B2, “Pyrimidine compounds as anti-ictogenic and/or anti-epileptogenic agents” (Queen's University at Kingston, priority 2001, dated 2009):

Test system: pilocarpine induced-seizures
Assay: Pilocarpine induced-seizure (PIS) model
Format: in vivo
Conditions: uracils in the Pilocarpine model; scale maximum = 4
Procedure: Pilocarpine Induced-seizure (PIS) Model
All test compounds are normally dissolved in a mixture of saline (NaCl 0.9% by mass) and 10% DMSO. However, in case of solubility problems, the concentration of DMSO may be increased to a maximum of 50%. This biological test is performed following the procedure disclosed in PCT publication WO 98/40055 (Queen's University at Kingston).

Compound | Relative Activity (Maximum = 4)
O=c1cc[nH]c(=O)[nH]1 [Compound P1, 1H-pyrimidine-2,4-dione] | Active - +2
Cc1c[nH]c(=O)[nH]c1=O [Compound P2, 5-methyl-1H-pyrimidine-2,4-dione] | Active - +2
O=c1[nH]cc(CO)c(=O)[nH]1 [Compound P3, 5-hydroxymethyl-1H-pyrimidine-2,4-dione] | Active - +3
O=c1[nH]cc(O)c(=O)[nH]1 [Compound P4, 5-hydroxy-1H-pyrimidine-2,4-dione] | Active - +2
O=c1[nH]cc(Br)c(=O)[nH]1 [Compound P5, 5-bromo-1H-pyrimidine-2,4-dione] | Active - +1
O=c1[nH]cc(I)c(=O)[nH]1 [Compound P6, 5-iodo-1H-pyrimidine-2,4-dione] | Active - +1
Cc1cc(=O)[nH]c(=O)[nH]1 [Compound P7, 6-methyl-1H-pyrimidine-2,4-dione] | Active - +3
Cc1[nH]c(=O)[nH]c(=O)c1Br [Compound P8, 5-bromo-6-methyl-1H-pyrimidine-2,4-dione] | Active - +2
Cc1[nH]c(=O)[nH]c(=O)c1[N+](=O)[O-] [Compound P9, 6-methyl-5-nitro-1H-pyrimidine-2,4-dione] | Active - +2
Nc1c(C(=O)O)[nH]c(=O)[nH]c1=O [Compound P10, 5-amino-2,6-dioxo-1,2,3,6-tetrahydro-pyrimidine-4-carboxylic acid] | Minimally Active
O=C(O)c1cc(=O)[nH]c(=O)[nH]1 [Compound P11, 2,6-dioxo-1,2,3,6-tetrahydro-pyrimidine-4-carboxylic acid] | Active - +2
O=C(O)c1c[nH]c(=O)[nH]c1=O [Compound P12, 2,4-dioxo-1,2,3,4-tetrahydro-pyrimidine-5-carboxylic acid] | Active - +2
Cn1cc([N+](=O)[O-])c(=O)n(C)c1=O [Compound P13, 1,3-dimethyl-5-nitro-1H-pyrimidine-2,4-dione] | Minimally Active
Cc1[nH]c(=O)[nH]c(=O)c1C [Compound P14, 5,6-dimethyl-1H-pyrimidine-2,4-dione] | Active - +2
CCCCc1cc2c[nH]c(=O)nc2o1 [Compound P17, 6-butyl-3H-furo[2,3-d]pyrimidin-2-one] | Active - +1
CCCCC#Cc1c[nH]c(=O)[nH]c1=O [Compound P18, 5-hex-1-ynyl-1H-pyrimidine-2,4-dione] | Active - +1
Cc1cn(C2CC(O)C(CO)O2)c(=O)[nH]c1=O (stereo not drawn) [Compound P19, 1-(4-hydroxy-5-hydroxymethyl-tetrahydro-furan-2-yl)-5-methyl-1H-pyrimidine-2,4-dione] | Minimally Active
CCC(C)n1cc(Br)c(=O)[nH]c1=O (stereo not drawn) [Compound P20, 5-bromo-1-sec-butyl-1H-pyrimidine-2,4-dione] | Active - +1

Compound | Relative Activity (Maximum = 4)
CC(C)n1cc(Br)c(=O)[nH]c1=O [Compound P21, 5-bromo-1-isopropyl-1H-pyrimidine-2,4-dione] | Active - +1
O=c1[nH]c(=O)n(Cc2ccccc2)cc1Br [Compound P22, 1-benzyl-5-bromo-1H-pyrimidine-2,4-dione] | Active - +1
O=c1[nH]c(=O)n(CC2CCCCC2)cc1Br [Compound P23, 5-bromo-1-cyclohexylmethyl-1H-pyrimidine-2,4-dione] | Minimally Active
O=c1c(Br)cn(CC2CCCCC2)c(=O)n1CC1CCCCC1 [Compound P24, 5-bromo-1,3-bis-cyclohexylmethyl-1H-pyrimidine-2,4-dione] | Minimally Active
O=c1c(Br)cn(Cc2ccc([N+](=O)[O-])cc2)c(=O)n1Cc1ccc([N+](=O)[O-])cc1 [Compound P25, 5-bromo-1,3-bis-(4-nitro-benzyl)-1H-pyrimidine-2,4-dione] | Active - +2
O=c1ccn(Cc2ccccc2)c(=O)[nH]1 [Compound P26, 1-benzyl-1H-pyrimidine-2,4-dione] | Active - +2
Cc1cc(=O)[nH]c(=O)n1Cc1ccccc1 [Compound P27, 1-benzyl-6-methyl-1H-pyrimidine-2,4-dione] | Active - +2
CSCc1c[nH]c(=O)[nH]c1=O [Compound P31, 5-methylsulfanylmethyl-1H-pyrimidine-2,4-dione] | Minimally Active
O=c1[nH]c(=O)n(Cc2ccccc2)cc1I [Compound P32, 1-benzyl-5-iodo-1H-pyrimidine-2,4-dione] | Active +1
Cc1cc(=O)n(Cc2ccc([N+](=O)[O-])cc2)c(=O)n1Cc1ccc([N+](=O)[O-])cc1 [Compound P33, 6-methyl-1,3-bis-(4-nitro-benzyl)-1H-pyrimidine-2,4-dione] | Active +2
Cn1ccc(=O)[nH]c1=O [Compound P34, 1-methyl-1H-pyrimidine-2,4-dione] | Minimally Active
Cn1ccc(=O)n(C)c1=O [Compound P35, 1,3-dimethyl-1H-pyrimidine-2,4-dione] | Active +3
CC(C)n1ccc(=O)n(C(C)C)c1=O [Compound P36, 1,3-diisopropyl-1H-pyrimidine-2,4-dione] | Active +2
O=c1ccn(CCCO)c(=O)n1CCCO [Compound P37, 1,3-bis-(3-hydroxy-propyl)-1H-pyrimidine-2,4-dione] | Active +2
NN1C(=O)CCN(Cc2ccccc2)C1=O [Compound P38, 3-amino-1-benzyl-dihydro-pyrimidine-2,4-dione] | Active +2
CC1CC(=O)N(N)C(=O)N1Cc1ccccc1 (stereo not drawn) [Compound P39, 3-amino-1-benzyl-6-methyl-dihydro-pyrimidine-2,4-dione] | Active +3
NC(=O)c1cnn(-c2cccc(N)c2)c1 [Compound P42, 1-(3-amino-phenyl)-1H-pyrazole-4-carboxylic acid amide] | Active +2
O=c1c(Cc2cn(Cc3ccccc3)c(=O)n(Cc3ccccc3)c2=O)cn(Cc2ccccc2)c(=O)n1Cc1ccccc1 [Compound P43] | Active +3
